The values below come from US12440476B2, “Agents that target telomerase reverse transcriptase (TERT) for treating cancer and sensitizing cancer cells to genotoxic therapy” (Northwestern University, priority 2022, dated 2025).

For series [1], the system named is CT26 cells. In words: Clonogenic survival after irradiation (radiosensitivity). The format is cell-based, mouse. As to conditions: for Sensitization of CT26 cells to radiation: non-toxic doses; for Mean SF2 (surviving fraction at 2 Gy): CT26 cells, NU-1 1 μM, BIBR 1532 20 μM, MST-312 2 μM for 1 h prior to IR. As to the method: (§1) To assess radiosensitivity, MCF7, Saos-2, or CT26 cells were seeded in 6-well plates at 100 cells per well in triplicate, allowed to attach overnight and treated with DMSO or TERT inhibitors at subtoxic concentrations for 1 h prior to IR. MCF7 cells were treated with 0.5 μM NU-1, 10 μM BIBR 1532, or 1 μM MST-312, Saos-2 cells with 1 μM NU-1 or 20 μM BIBR 1532 and CT26 cells with 1 μM NU-1, 20 μM BIBR 1532 or 2 μM MST-312. Doses of 0, 1, 2, 3, 4, or 5 Gy were applied using a GammaCell ^60Co γ-ray source (Nordion) at a dose rate of 7.09 cGy/sec. After that MCF7 and Saos-2 cells were cultured for 3 weeks and CT26 for 2 weeks, then fixed and stained with crystal violet. Colonies of at least 50 cells were counted. Data from three independent biological replicates were acquired. The surviving fraction (SF) was calculated using the following formula: […]

Series [2] has as its system CT26 cells. In words: Clonogenicity assay (inhibitor alone). The class given is cell-based, mouse. As to conditions: 1 μM NU-1, 2 μM MST, 20 μM BIBR. As to the method: MCF7, Saos-2, or CT26 cells were seeded in 6-well plates at 100 cells per well in triplicate and allowed to attach overnight. MCF7 or CT26 cells were then treated with DMSO vehicle or TERT inhibitors in final concentration of 0.25, 0.5, 0.75, 1, 2 μM for NU-1, 2.5, 5, 7.5, 10, 20 μM for BIBR 1532, or 1, 2, 3, 4, 5 μM for MST-312. Saos-2 cells were treated with DMSO vehicle or TERT inhibitors in final concentration of 0.25, 0.5, 0.75, 1, 2 μM for NU-1 or 2.5, 5, 10, 20, 40 μM for BIBR 1532. The final volume of cell culture medium was 3 mL per well. MCF7 and Saos-2 cells were continuously cultured for 3 weeks and CT26 for 2 weeks in the presence of TERT inhibitors, fixed in methanol for 5 min, then stained with 0.5% crystal violet for 10 min at room temperature. After washing with water, the plates were dried at room temperature and imaged with an iBright Imaging System (Thermo Fisher Scientific).

Series [3] has as its system Saos-2 cells. Nature of the series: Clonogenic survival after irradiation (radiosensitivity). As to conditions: NU-1 1 μM. The format is cell-based, human. As to the method: as §1
The subject of series [4] is MCF7 cells. The description is as above. As to conditions: MCF7 cells; NU-1 0.5 μM, BIBR 1532 10 μM, MST-312 1 μM for 1 h prior to IR; 2 Gy. The class given is cell-based, human. As to the method:
as §1

Series [5] deals with CT26 cells. Nature of the series: Senescence-associated beta-galactosidase (SA-β-Gal) assay. The class given is cell-based, mouse. As to conditions: non-toxic doses, 10 Gy, 5 days. As to the method: (§2) MCF7, Saos-2, or CT26 cells were seeded at 3×10^4 per well in 6-well plates and allowed to attach to plate overnight. For TERT inhibition, MCF7 cells were treated with DMSO vehicle, NU-2 (0.5 μM), NU-1 (0.5 μM), chrolactomycin (0.5 μM), BIBR 1532 (10 μM), or MST-312 (1 μM) for 1 h prior to IR, Saos-2 cells were treated with DMSO vehicle, NU-2 (1 μM), NU-1 (1 μM), chrolactomycin (1 μM), BIBR 1532 (20 μM), or MST-312 (1 μM) for 1 h prior to IR, and CT26 cells were treated with MSO vehicle, NU-2 (1 μM), NU-1 (1 μM), chrolactomycin (1 μM), BIBR 1532 (20 μM), or MST-312 (2 μM) for 1 h prior to IR. Then MCF7 and Saos-2 cells were irradiated with 0 or 6 Gy and CT26 cells with 0 or 10 Gy. After IR, MCF7 and Saos-2 cells were continuously cultured for 7 days and CT26 for 5 days, then fixed in 2% PFA and stained with staining buffer (1 mg/ml X-Gal (Golden Bio), 40 mM citric acid/sodium phosphate, 150 mM NaCl, 2 mM MgCl2, 3.3 mM K3[Fe(CN)6], 3.3 mM K4[Fe(CN)6], pH=6) for 16 h at 37° C., then washed with warm PBS three times and imaged in PBS within a week. Images were captured on a Zeiss Axiovert 200M microscope with a 20× Plan-NeoFluar objective and Axiocam digital camera. SA-β-Gal-positive and -negative cells were counted in more than 5 fields, yielding an average percentage indicated on each SA-β-Gal image as mean±SD. Three replicates were performed.
To examine the roles for STING, CT26 cells were seeded at 2×10^4 per well in 12-well plates and allowed to attach overnight. STING inhibitor C178 (0 or 4 μM) was added, followed by the addition of DMSO vehicle, NU-1 (1 μM), MST-312 (2 μM) or chrolactomycin (1 μM) for 1 h prior to 0 or 10 Gy. CT26 cells were cultured for 5 days, surviving cells were washed twice in PBS and cultured in fresh immune cell culture medium overnight. The CT26 cells were then cocultured with BMDCs for 12-16 h at a 1:2 ratio, and BMDCs were collected and analyzed after coculturing, as described above.

For series [6], the system named is MCF7-FUCCI cells. Nature of the series: Time-lapse live-cell analysis of cell cycle. As to conditions: 0.5 μM for 1 h, then 6 Gy, 6 days. The class given is cell-based, human. As to the method:
MCF7-FUCCI cells were seeded at 3×10^4 per well in 6-well plates, allowed to attach overnight, then treated with 0.5 μM NU-2 control, NU-1 or chrolactomycin for 1 h, followed by 6 Gy. Then, live-cell imaging was conducted using the IncuCyteS3. Phase contrast along with green and red channels were acquired at 20× magnification with scanning every 2 h for 6 days. 16 non-overlapping fields were captured for each well. Representative consecutive images were used to create the movies using Fiji (Schindelin et al., 2012).

Series [7] has as its system MCF7 cells. In words: Senescence-associated beta-galactosidase (SA-β-Gal) assay. The format is cell-based, human. As to the method: as §2, with “For TERT inhibition, MCF7 cells were treated with DMSO vehicle, NU-2 (0.5 μM), NU-1 (0.5 μM), chrolactomycin (0.5 μM), BIBR 1532 (10 μM), or MST-312 (1 μM) for 1 h prior to IR, Saos-2 cells were treated with DMSO vehicle, NU-2 (1 μM), NU-1 (1 μM), chrolactomycin (1 μM), BIBR 1532 (20 μM), or MST-312 (1 μM) for 1 h prior to IR, and CT26 cells were treated with MSO vehicle, NU-2 (1 μM), NU-1 (1 μM), chrolactomycin (1 μM), BIBR 1532 (20 μM), or MST-312 (2 μM) for 1 h prior to IR.” left out

Series [8] deals with CD8+ T cells. In words: In vitro T cell priming assay (CFSE dilution). The format is cell-based, mouse. As to conditions: DCs stimulated by inhibitor treated and irradiated (10 Gy) CT26 cells; 5 days; NU-1 1 μM, MST 2 μM. As to the method:
To evaluate effects of TERT on tumor immunogenicity, CT26 cells were seeded at […] per well in 12-well plates, allowed to attach overnight, and then treated with DMSO, NU-1 (1 μM), or MST-312 (2 μM) for 1 h, followed by 0 or 10 Gy. 5 days after IR, the media were removed, cells washed with PBS, and fresh immune cell culture medium added. CT26 cells were then cultured overnight, followed by coculturing with immature BMDCs for 12-16 h at a 1:2 ratio. After coculture, the suspension BMDCs were collected into round bottom FACS tubes, washed with PBS, and stained with Zombie yellow (1:1000, BioLegend) for 10 min at room temperature. […] After PBS washing, cells were resuspended in 300 μL Cell Staining Buffer and analyzed using a BD Fortessa 4-15 HTS Flow cytometer within 2 hours. Data were then analyzed by FlowJo software. […]
Splenocytes isolated from CT26 immunized mice were stained with 0.5 μM carboxyfluorescein succinimidyl ester (CFSE) (Thermo Fisher Scientific, Cat #C34554) for 10 min at room temperature (Quah et al., 2007). […] Cells were analyzed using a BD Fortessa 4-15 HTS flow cytometer and FlowJo software. […]

With `C/C(=C\C(=O)Nc1ccccc1C(=O)O)c1ccc2ccccc2c1` [BIBR 1532], the “Sensitization of CT26 cells to radiation” value in series [1] is reported as “had no similar effects”. In addition, the “Mean SF2 (surviving fraction at 2 Gy)” value in series [1] is reported as 0.727; in series [3] (Saos-2 cells, BIBR 1532 20 μM for 1 h prior to IR, 2 Gy), 0.580; in series [4], 0.256. The “Tolerance in clonogenic assay (inhibitor alone)” value in series [2] is “non-toxic”. Moreover, the “Radiosensitization in clonogenic survival assay” value in series [3] (Saos-2 (telomerase negative), BIBR 20 μM) is on record as “Neither NU-1 nor BIBR displayed radiosensitization”. In series [5], the “Senescence induction by IR” value is “had no similar effects”.
For `C=C1C(=O)[C@]2(OC)C(=O)O[C@@]34C[C@H](C)C(C(=O)O)=C[C@@H]3CCC[C@@H](C)C[C@@H](C)[C@H]1O[C@H]24` [CHRO, chrolactomycin, reference compound], the “Surviving cells arrested with G1 marker expression and senescent morphology” value in series [6] was approximately 80%. The “Enhancement of senescence after IR at low concentration” value in series [7] (50 nM, 7 days after IR) is “sufficient to enhance senescence after IR”.
Regarding `O=C(Nc1cccc(NC(=O)c2cccc(O)c2O)c1)c1cccc(O)c1O` [MST-312], the “Proliferating CD8+ T cells” value in series [8] was determined as 30.4%. Moreover, in series [1], the “Sensitization of CT26 cells to radiation” value is “sensitized CT26 cells to radiation” and the “Mean SF2 (surviving fraction at 2 Gy)” value stood at 0.407. Further, the “Tolerance in clonogenic assay (inhibitor alone)” value in series [2] was “tolerated”. In series [4], the “Mean SF2 (surviving fraction at 2 Gy)” value was found to be 0.245. For the same molecule, the “Senescence induction by IR” value in series [5] is reported as “enhanced senescence induction by IR”.
As to `COC(=O)[C@@]1(C)C(=O)C[C@@H](C)O[C@H]1CCc1cn(Cc2ccc(F)cc2F)nn1` [NU-2], the “Surviving cells arrested with G1 marker expression and senescent morphology” value in series [6] is recorded as approximately 40%. Moreover, the “SA-β-Gal+ cells” value in series [7] (7 days after IR (6 Gy)) is approximately 34%.
